Experimental data reported in PubChem BioAssay AID2060492 (Molecular Pharmacology Branch, DTP, NCI, 2025).
Values joined by “and” are separate entries in the source; they are usually repeats but may differ in a detail not shown here. Equal entries are not always repeated.

System: 695427-040-R-J1-PDC complex spheroids, viability percent T/C
Assay: Anticancer human tumor 695427-040-R-J1-PDC patient-derived colon adenocarcinoma cell line growth inhibition [GQUAD]
Settings: for viability, T/C: stronger effect = lower value
Text: DNA G-quadruplex Stabilizer Agents in Combinations in Complex Spheroids
A high-throughput screen of multi-cell type tumor spheroids was designed to identify active combinations of DNA G-quadruplex stabilizer agents and targeted small molecules. Complex spheroids include a stromal component modeled by human endothelial cells (HUVEC) and fibroblasts modeled by human mesenchymal stem cells (MSCs). The concentration ranges selected for each drug and investigational agent were based upon clinically achievable concentrations if the clinical Cmax of the agent was known.
Compounds. The drugs and investigational agents: pidnarulex (CX-5461; NSC782164), APTO-253 (NSC789042), BRACO-19 (NSC847499), peposertib (NSC802822), ceralasertib (NSC780249), elimusertib (NSC800525), camonsertib (NSC841442), AZD-1390 (NSC803789), olaparib (NSC753686), talazoparib (NSC767125), ART-558 (NSC835418), sotorasib (NSC818433), MRTX-1133 (NSC836407), SN-38 (NSC673596), topotecan (NSC609699), etoposide (NSC141540), doxorubicin (NSC123127), gemcitabine (NSC613327), 5-fluorouracil (NSC19893), paclitaxel (NSC125973), vemurafenib (NSC761431), panobinostat (NSC761190), R-306465 (JNJ-16241199; NSC773264), adavosertib (NSC754352), TP-3654 (NSC805149), carboplatin (NSC241240), KSQ-4279 (NSC840948), and staurosporine (NSC755774) were obtained from the National Cancer Institute (NCI) Developmental Therapeutics Program Chemical Repository (34). The FDA-approved anticancer drug set is available from the NCI Developmental Therapeutics Program. […] The stock solutions were prepared in dimethyl sulfoxide (DMSO, Sigma-Aldrich, St. Louis, MO, cat. D2650) at 800-fold the tested concentration and stored at -70 degrees C prior to their use. All drugs and investigational agents were tested over a range starting from a high concentration at or near the clinical Cmax and decreasing in half-log increments. If the clinical Cmax for an agent had not been determined, the highest concentration tested was 10 microM.
2.3 Cell Culture. All cells were maintained in an incubator at 37 degrees C and 5% CO2 with 95% humidity. The PDC lines were cultured according to standard operating procedures established by the NCI PDMR. All PDCs were thawed and cultured in Matrigel-coated flasks prepared with a working solution of 1X Ham's F-12 nutrient mix, without supplementation (Invitrogen, cat. 11765054), 100 U/mL penicillin-streptomycin (Invitrogen, cat. 15140122), and 2.5% Matrigel (Corning Inc., cat. 354248) for the first three passages. The 857933-349-R-J2-PDC line was cultured in 6C/Colon 1B media, which includes advanced DMEM/F-12 (Thermo Fisher Scientific, cat. 12634028), 10 mM HEPES (Thermo Fisher Scientific, cat. 15630080), 1X GlutaMAX supplement (Thermo Fisher Scientific, cat. 35050061), 0.1 mg/mL primocin (InvivoGen, cat. ant-pm-2), 10% defined fetal bovine serum, heat inactivated (HyClone Laboratories Inc., cat. SH30070.03HI), 50% L-WRN conditioned media (ATCC, cat. CRL-3276), 1.25 mM N-Acetyl-L-cysteine (Sigma-Aldrich, cat. A9165), 10 mM nicotinamide (Sigma-Aldrich, cat. N0636), 1X B-27 supplement (Thermo Fisher Scientific, cat. 17504044), 1X N-2 supplement (Thermo Fisher Scientific, cat. 17502048), 10 microM Y-27632 dihydrochloride (Tocris Bioscience, cat. 1254), and 50 ng/mL human EGF recombinant protein (Thermo Fisher Scientific, cat. PHG0311). The 485176-168-R4-J1-PDC line was cultured in Panc media, which includes all 6C/Colon 1B media components plus 100 ng/mL human FGF-10 (Thermo Fisher Scientific, cat. 100-26), 500 nM SB-431542 (Selleckchem, cat. S1067), and gastrin (Tocris, cat. 3006).
[…]
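Also: spheroids exposed to compounds for seven days before readout.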

| Structure (SMILES) | viability, T/C (compound 0.0316 µM) | viability, T/C (compound 0.1 µM) | viability, T/C (compound 0.316 µM) | viability, T/C (compound 1 µM) | viability, T/C (compound 3.16 µM) | viability, T/C (compound 10 µM) | IC50 (curve of compound) | IC50 (compound alone, run of 04/16/2024) | IC50 (compound alone, run of 04/22/2024) | viability, T/C (compound 0.000999 µM) | viability, T/C (compound 0.00316 µM) | viability, T/C (compound 0.00999 µM) | viability, T/C (compound 0.0999 µM) |
| --- | --- | --- | --- | --- | --- | --- | --- | --- | --- | --- | --- | --- | --- |
| COc1cc(C2c3cc4c(cc3C(OC3OC5COC(C)OC5C(O)C3O)C3COC(=O)C23)OCO4)cc(OC)c1O (stereo unspecified) | 96.9% and 98.6% and 100% | 90.3% and 81.4% and 90% | 110% and 86.1% and 104% | 97.4% and 90% and 94.7% | 95.6% and 68.2% and 90.1% | 77.5% and 61.8% and 75.3% | > 10 µM | – | – | – | – | – | – |
| COc1ccc([C@@H](O)c2cc(-c3ncnc4cc(N5CCOCC5)ccc34)c(F)cc2Cl)nn1 | 91.1% and 96.7% and 94.1% | 79.7% and 91.7% and 86.8% | 101% and 91.6% and 95.4% | 70.5% and 92% and 82.2% | 69% and 67.2% and 61% | 50.5% and 51% and 46% | > 10 µM and 7.33 µM | – | – | – | – | – | – |
| COc1cccc2c1C(=O)c1c(O)c3c(c(O)c1C2=O)CC(O)(C(=O)CO)CC3OC1CC(N)C(O)C(C)O1 (stereo unspecified) | 108% and 100% and 89.9% | 88.7% and 92.9% and 92.4% | 90.9% and 94.7% and 84.1% | 90.9% and 89.8% and 68.8% | 74.8% and 60.3% and 59% | 44.5% and 47.9% and 43.7% | 8.21 µM and 8.19 µM and 5.94 µM | – | – | – | – | – | – |
| COc1ncnc(C2CC2)c1-c1ncc2cnn(Cc3ccc(-c4nc(C(F)(F)F)cn4C(C)C)cc3)c2n1 | 86.9% and 97.4% and 103% | 92.5% and 96.3% and 95.5% | 93.3% and 102% and 94.6% | 81.1% and 99.2% and 93% | 71.3% and 107% and 93.5% | 82% and 78% and 98% | > 10 µM | – | – | – | – | – | – |
| Cc1[nH]c2ccc(F)cc2c1-c1nc2c3cccnc3c3ncccc3c2[nH]1 | – | 103% [middle of 12 runs] | 102% [middle of 12 runs] | 97% [middle of 12 runs] | 87.2% [middle of 12 runs] | 80.3% [middle of 12 runs] | – | > 10 µM | > 10 µM | – | – | – | – |
| Cc1[nH]c2ccccc2c1CCNCc1ccc(/C=C/C(=O)NO)cc1 | 98.7% and 110% and 101% | – | 89.6% and 68% and 71.7% | – | – | – | > 0.316 µM | – | – | 98.8% and 112% and 98% | 103% and 100% and 96.8% | 98.5% and 103% and 99.5% | 96.6% and 93.8% and 94.2% |
| Cc1cccc(N(C)C(=O)C2C(O)CCN2c2nc(C)cc(C(F)(F)F)c2C#N)c1 (stereo unspecified) | 109% and 104% and 116% | 90.7% and 90.4% and 93.4% | 88.3% and 106% and 102% | 101% and 94.8% and 87.2% | 85.2% and 105% and 78.1% | 87.4% and 90.2% and 74.4% | > 10 µM | – | – | – | – | – | – |
| Cc1cnc(CNC(=O)c2c(=O)c3ccc(N4CCCN(C)CC4)nc3n3c2sc2ccccc23)cn1 | 95.8% [middle of 12 runs] | 91.6% [middle of 12 runs] | 85.3% [middle of 12 runs] | 76.2% [middle of 12 runs] | 58% [middle of 12 runs] | 44.7% [middle of 12 runs] | – | – | – | – | – | – | – |
| Cn1ncnc1[C@H]1c2n[nH]c(=O)c3cc(F)cc(c23)N[C@@H]1c1ccc(F)cc1 | 108% and 98.7% and 87.9% | – | 69.6% and 93.1% and 74.3% | – | – | – | > 0.316 µM | – | – | 93.3% and 88.5% and 90.8% | 80.2% and 90.7% and 85.4% | 88.3% and 95.7% and 109% | 99.3% and 102% and 82.7% |
| Nc1ccn(C2OC(CO)C(O)C2(F)F)c(=O)n1 (stereo unspecified) | 81.8% and 90.5% and 89.3% | 77.1% and 75.9% and 76.4% | 72.5% and 81.7% and 66.8% | 64.7% and 73.6% and 62.1% | 51.1% and 69.9% and 47% | 54.9% and 64.9% and 48.6% | > 10 µM and 4.78 µM | – | – | – | – | – | – |
| O=C(NO)c1cnc(N2CCN(S(=O)(=O)c3ccc4ccccc4c3)CC2)nc1 | 99.2% and 107% and 96.1% | 97.4% and 90.7% and 87.3% | 98% and 73.8% and 71.3% | – | – | – | – | – | – | – | – | – | – |
| O=C(c1cc(Cc2n[nH]c(=O)c3ccccc23)ccc1F)N1CCN(C(=O)C2CC2)CC1 | 84.8% and 115% and 98.4% | 94.2% and 98.6% and 103% | 93.2% and 99.7% and 95.8% | 99.4% and 97.6% and 92.7% | 72.7% and 105% and 88.9% | 88% and 93.6% and 77.6% | > 10 µM | – | – | – | – | – | – |
| O=c1[nH]cc(F)c(=O)[nH]1 | 95.9% and 105% and 110% | 85.8% and 99.6% and 96.4% | 86% and 106% and 100% | 97.5% and 100% and 88.9% | 80.1% and 63.3% and 102% | 86.5% and 98.3% and 92% | > 10 µM | – | – | – | – | – | – |
